Legend:
5-HT2A receptor = 5-HT2A receptor (Homo sapiens, UniProt P28223); assay: 5-HT2A receptor functional assay (calcium flow, FLIPR, antagonist); format: cell-based
male ICR mice [1] = assay: MK-801-induced hyperactivity in mice; format: in vivo; details: single oral dose
Description: Immediately after injection with either saline or MK-801 (0.3 mg/kg, i.p.), the mice were placed into the test chambers (29 cm × 29 cm × 30 cm) for 60 min of locomotion recording using a tracking and computerized analysis system (TopScan Version 3.00, Clever Sys Inc., Leesburg, VA).

D3 receptor = D3 receptor (Homo sapiens, UniProt P35462); assay: D3 receptor functional assay (Nano-Glo luciferase assay system); format: cell-based; details: antagonist activity, CHO-K1/D3 cells, read-out: D3R, IC50
male ICR mice [2] = assay: DOI-induced head twitch in mice
5-HT1A receptor = target: T1, 5-HT1A receptor (Homo sapiens, UniProt P08908); assay: 5-HT1A receptor functional assay (cAMP assay, antagonist); format: cell-based; details: antagonist activity, CHO-K1/5-HT1A cells, read-out: 5HT1AR, IC50
T1 sequence (P08908 1-422): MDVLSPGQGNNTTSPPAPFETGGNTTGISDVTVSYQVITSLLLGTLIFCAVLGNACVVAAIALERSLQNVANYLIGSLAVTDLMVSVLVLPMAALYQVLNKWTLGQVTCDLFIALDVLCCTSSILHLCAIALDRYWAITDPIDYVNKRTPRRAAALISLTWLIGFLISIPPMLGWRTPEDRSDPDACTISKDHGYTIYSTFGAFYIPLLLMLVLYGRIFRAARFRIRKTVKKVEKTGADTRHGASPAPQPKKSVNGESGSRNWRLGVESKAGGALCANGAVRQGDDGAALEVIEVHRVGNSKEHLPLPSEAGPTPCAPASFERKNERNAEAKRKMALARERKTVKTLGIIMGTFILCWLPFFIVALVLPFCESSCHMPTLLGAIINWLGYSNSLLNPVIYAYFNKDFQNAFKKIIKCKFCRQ

5-HT7 receptor = target: T2, 5-HT7 receptor (Homo sapiens, UniProt P34969); assay: 5-HT7 receptor functional assay (Bright-Glo Luciferase assay system); format: cell-based; details: HEK293/5-HT7 cells, read-out: 5HT7R, IC50
T2 construct: host or cells: HEK293/5-HT7

male ICR mice [3] = assay: Novel object recognition in scopolamine hydrobromide-treated mice; format: in vivo; details: NOR; NH300094 0.01–0.16 mg/kg p.o.; risperidone 0.04, 0.08, 0.16 mg/kg p.o.; rivastigmine 0.3 and 1 mg/kg i.p.
Description: The procedure was modified according to Bevins and Besheer ([Bevins and Besheer, 2006]). […] The tests were conducted in a 50 cm × 35 cm × 20 cm chamber and the mice behavior was recording using a Hikvision video recording system (H.265, Hikvision Digtial Technology Co., Ltd.). All mice were allowed to freely explore the chamber environment for 10 min, and there were no objects placed in the chamber during acclimatization period. […] Rivastigmine hydrogen tartrate group (0.1, 0.3 and 1 mg/kg, i.p.) were dosed simultaneously with scopolamine hydrobromide (3 mg/kg, i.p.). Training was conducted 30 min post scopolamine hydrobromide administration by placing a single mouse into a chamber for 10 min with two exactly same objects positioned in the center of chamber. (The distance between the two objects was more than 20 cm). […]
The experimental video was analyzed to record the time of mice exploring the new and old objects, respectively, and the differentiation index (DI) was calculated as follows: DI = new object exploration time/(new object exploration time + old object exploration time), which was used as the main evaluation index of discrimination ability. […] If the total exploration time of the new and old objects was less than 20 s, the total 10 min of video would be analyzed. […] The movement of circling without sniffing or sitting on the object was not recorded as exploration behavior.

[4] = Pharmacokinetics assay in rats; format: in vivo, male SD rats
Description: Six male SD rats (7 weeks of age) were randomly divided into two groups with three rats per group. Animals were fasted overnight and had free access to water before dosing. For the intravenous group, male SD rats were administered NH300094 by single intravenous bolus administration at a dose of 2 mg/kg. For the oral group, male SD rats were dosed orally with NH300094 at a dose of 10 mg/kg. Serial blood samples were collected at different time points (Pre-dose, 0.033, 0.083, 0.25, 0.5, 1, 2, 4, 6, 8, 12 and 24 h for the intravenous group; Pre-dose, 0.167, 0.333, 0.5, 1, 2, 4, 6, 8, 10, 12 and 24 h for the oral group) via jugular vein puncture from each study animal. All blood samples were transferred into commercial tube containing K2-EDTA. Plasma samples were prepared by centrifuging the blood samples at approximately 4°C, 3,200×g for 15 min, and then stored at −70°C until analysis (Supplementary Materials). The pharmacokinetic parameters were calculated using WinNonlin software (Version 6.3) according to non-compartmental model.

male ICR mice [5] = details: p.o.
[6] = rat, plasma, intravenous, 2 mg/kg, male SD rats
[7] = rat, plasma, oral, 10 mg/kg, male SD rats

Sequence of 5-HT2A receptor (P28223 whole entry): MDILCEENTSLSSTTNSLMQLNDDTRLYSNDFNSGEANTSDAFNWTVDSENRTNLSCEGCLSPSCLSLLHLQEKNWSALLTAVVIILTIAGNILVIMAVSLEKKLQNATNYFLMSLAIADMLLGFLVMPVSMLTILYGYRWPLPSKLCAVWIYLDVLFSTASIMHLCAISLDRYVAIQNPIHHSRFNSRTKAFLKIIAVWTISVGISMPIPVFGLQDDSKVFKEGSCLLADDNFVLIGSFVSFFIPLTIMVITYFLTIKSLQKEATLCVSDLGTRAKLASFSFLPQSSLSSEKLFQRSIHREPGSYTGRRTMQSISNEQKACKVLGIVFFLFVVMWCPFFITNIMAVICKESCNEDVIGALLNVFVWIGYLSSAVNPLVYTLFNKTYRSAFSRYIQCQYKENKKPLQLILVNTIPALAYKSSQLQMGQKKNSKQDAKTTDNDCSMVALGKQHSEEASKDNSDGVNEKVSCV
T2 sequence (P34969 whole entry): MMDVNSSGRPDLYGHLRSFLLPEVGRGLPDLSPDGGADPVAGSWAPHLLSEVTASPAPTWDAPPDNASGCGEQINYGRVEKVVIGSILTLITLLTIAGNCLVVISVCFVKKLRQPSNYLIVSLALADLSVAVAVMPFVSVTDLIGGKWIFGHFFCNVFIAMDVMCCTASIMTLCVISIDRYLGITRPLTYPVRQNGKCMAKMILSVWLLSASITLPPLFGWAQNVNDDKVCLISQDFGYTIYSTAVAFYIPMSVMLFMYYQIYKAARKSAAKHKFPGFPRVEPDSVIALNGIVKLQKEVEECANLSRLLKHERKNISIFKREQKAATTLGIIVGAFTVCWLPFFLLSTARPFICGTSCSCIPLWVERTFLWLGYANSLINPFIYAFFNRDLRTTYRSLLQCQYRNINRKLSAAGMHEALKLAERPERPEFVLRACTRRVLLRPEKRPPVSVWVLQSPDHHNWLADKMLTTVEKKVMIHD
Sequence of D3 receptor (P35462 whole entry): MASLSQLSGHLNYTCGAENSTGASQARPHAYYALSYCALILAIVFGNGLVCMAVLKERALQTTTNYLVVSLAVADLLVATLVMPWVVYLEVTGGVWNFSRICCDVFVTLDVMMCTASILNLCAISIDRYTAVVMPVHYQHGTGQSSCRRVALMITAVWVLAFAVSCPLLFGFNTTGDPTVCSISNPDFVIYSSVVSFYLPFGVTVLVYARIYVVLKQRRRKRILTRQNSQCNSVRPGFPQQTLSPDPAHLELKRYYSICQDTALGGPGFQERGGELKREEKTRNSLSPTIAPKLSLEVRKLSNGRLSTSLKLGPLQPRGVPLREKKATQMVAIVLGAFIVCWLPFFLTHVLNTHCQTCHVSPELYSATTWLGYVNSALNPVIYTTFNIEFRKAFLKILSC

Structure (SMILES): O=C1CCc2cc(OCCCN3CCC(c4noc5cc(F)ccc45)CC3)cc3c2N1CC3 [NH300094, 8-(3-(4-(6-fluorobenzo [d]isoxazol-3-yl)piperidin-1-yl)propoxy)-1,2,5,6-tetrahydro-4H-pyrrolo [3,2,1-ij] quinolin-4-one]
- antagonistic activities ratio of 5-HT2AR and D2R (IC50 ratio) (5-HT2A receptor; IC50 5-HT2AR / IC50 D2R): 0.45
- IC50 (5-HT2A receptor; antagonist activity, calcium flow FLIPR, CHO-K1/5-HT2A cells, read-out: 5HT2AR, IC50): 0.00047 ± 0.00079 µM
- ED50 (male ICR mice [1]; Mus musculus, MK-801 0.3 mg/kg i.p., read-out: ED50, inhibition of MK-801-induced hyperactivity): ~0.07 mg/kg
- Minimum effective dose (MED), MK-801-induced hyperactivity (male ICR mice [1]): 0.03 mg/kg
- IC50 (D3 receptor): 0.0315 ± 0.0231 µM
- ED50 (male ICR mice [2]; Mus musculus, po, read-out: ED50, inhibition of DOI-induced head twitch, single oral dose, male ICR mice, DOI 1 mg/kg): ~0.007 mg/kg
- MED, DOI-induced head twitch (male ICR mice [2]; single oral dose, male ICR mice): 0.003 mg/kg
- IC50 (5-HT1A receptor): 0.0856 ± 0.0615 µM
- IC50 (5-HT7 receptor): 5.52 µM
- effect on differentiation index (DI) of scopolamine hydrobromide-treated mice (male ICR mice [3]): increased DI index
- bioavailability ([4]; male, SD, rat, plasma, oral, 10 mg/kg, oral 10 mg/kg vs intravenous 2 mg/kg, male SD rats): ~87.6%
- area under the concentration time-curves for time zero to infinity ([4]; oral administration, rats (rounded value in text)): 14800 ng/mL*h
- AUC(0-inf) [4, 6]: 3380 ng·h/mL
- AUC(0-t) [4, 6]: 3370 ng·h/mL
- C0 [4, 6]: 10800 ng/mL
- clearance [4, 6]: 9.91 mL/min/kg
- half-life [4, 6]: 1.73 h
- Vd ([4]; rat, plasma, intravenous, 2 mg/kg, male SD rats, read-out: Vdss): 0.379 L/kg
- AUC(0-inf) [4, 7]: 14800 ng·h/mL
- AUC(0-t) [4, 7]: 14800 ng·h/mL
- Cmax [4, 7]: 8710 ng/mL
- Tmax [4, 7]: 0.389 h
- half-life [4, 7]: 1.28 h
- minimal dose that induced catalepsy (male ICR mice [5]): 3 mg/kg

— PMC10848157, “Assessing NH300094, a novel dopamine and serotonin receptor modulator with cognitive enhancement property for treating schizophrenia” (Frontiers in Pharmacology, 2024)
